Laboratory results: ChEMBL document CHEMBL1140622, “Structure based de novo design of novel glycogen synthase kinase 3 inhibitors” (Bioorg Med Chem, 2007)

Assay: Inhibition of GSK3

Row | Structure (SMILES) | IC50 [nM] | Log IC50
1 | COc1cccc(Nc2nccc(-c3cnn4ncccc34)n2)c1 [PYRAZOLOPYRIDAZINE 1] | 10 | 
2 | O=C1NC(=O)C(c2cnc3cccnn23)=C1c1cn2c3c(cccc13)CN(C(=O)N1CCCCC1)CC2 [BISARYLMALEIMIDE 1] | 0.7 | 
3 | O=C1NC(=O)C(c2cncc3ccoc23)=C1c1cn2c3c(cccc13)CN(C(=O)N1CCOCC1)CC2 [BISARYLMALEIMIDE 2] | 0.8 | 
4 | COc1ccc(Nc2nccc(-c3cnn4ncccc34)n2)cc1OC [PYRAZOLOPYRIDAZINE 2] | 12 | 
5 | CN(C)CCCn1cc(C2=C(c3c[nH]c4ccccc34)C(=O)NC2=O)c2ccccc21 [GF-109203] | 190 | 
6 | CN(C)CCNC(=O)c1ccc(/C=N/Nc2ncnc3c2cnn3-c2cccc3[nH]cnc23)cc1 [PYRAZOLOPYRIMIDINE 1] |  | -8.8
7 | COc1cccc(-n2ncc3c(N/N=C/c4ccc(S(C)(=O)=O)cc4)ncnc32)c1 [PYRAZOLOPYRIMIDINE 2] |  | -8.6
8 | O=C1NC(=O)C2=C1c1cn(c3ccccc13)CCOCCOCCOCCn1cc2c2cccnc21 [INDOLYLYLMALEIMIDE 1] | 17 | 
9 | O=C1Nc2ccc(Br)cc2/C1=C1/Nc2ccccc2/C1=N\O [INDIRUBIN 2] | 5 | 
10 | CC(=O)O/N=C1/C(=C2/C(=O)Nc3cc(Cl)c(Cl)cc32)Nc2ccccc21 [INDIRUBIN 1] | 4 | 
11 | CN1CCN(c2cnc(NCCNc3ccc([N+](=O)[O-])c(N)n3)nc2-c2ccc(Cl)cc2Cl)C(=O)C1 | 4 | 
12 | O=C1NC(=O)C2=C1c1cn(c3ccccc13)CCOCCOCCOCCn1cc2c2ccccc21 [INDOLYLYLMALEIMIDE 2] | 22 | 
13 | CC(=O)NC1=NC(=O)/C(=C2\CCNC(=O)c3c2cc(Br)n3C(C)=O)N1 [HYMENIALDISINE 2] | 130 | 
